Results as given in patent EP1953147A1, “HETEROCYCLIC COMPOUND AND MEDICINAL APPLICATION THEREOF” (priority 2005, dated 2007).
Where a name gives a salt, the structure may show the parent alone.

Tested on: ΔG/SEAP/HCV E1E2
Assay: Effect of test substance on cell infection with HCV pseudotype virus (SEAP reporter assay in HepG2 cells)
Type: cell-based
Conditions: Hepatitis C virus

SMILES | IC50 [nM]
COc1cc(OC)cc(-c2nn(-c3cc(N4CC[C@H](O)C4)ccc3C(F)(F)F)c(=O)c3c2CCN3C(=O)OC(C)C)c1 [Example 155, 4-(3,5-dimethoxy-phenyl)-6-[5-((S)-3-hydroxy-pyrrolidin-1-yl)-2-trifluoromethyl-phenyl]-7-oxo-2,3,6,7-tetrahydro-pyrrolo[2,3-d]pyridazine-1-carboxylic acid isopropyl ester] | < 100
COc1cc(OC)cc(-c2nn(-c3cc(NCCN(C)C(=O)OC(C)(C)C)ccc3C(F)(F)F)c(=O)c3c2CCC3)c1 [Example 156, (2-{3-[4-(3,5-dimethoxy-phenyl)-1-oxo-1,5,6,7-tetrahydro-cyclopenta[d]pyridazin-2-yl]-4-trifluoromethyl-phenylamino}-ethyl)-methyl-carbamic acid tert-butyl ester] | 100 to 10000
CNCCNc1ccc(C(F)(F)F)c(-n2nc(-c3cc(OC)cc(OC)c3)c3c(c2=O)CCC3)c1 [Example 157, 4-(3,5-dimethoxy-phenyl)-2-[5-(2-methylamino-ethylamino)-2-trifluoromethyl-phenyl]-2,5,6,7-tetrahydro-cyclopenta[d]pyridazin-1-one hydrochloride] | 100 to 10000
O=c1c2c(c(-c3ccsc3)nn1-c1cc(N3CC[C@H](O)C3)ccc1C(F)(F)F)CCC2 [Example 158, 2-[5-((S)-3-hydroxy-pyrrolidin-1-yl)-2-trifluoromethyl-phenyl]-4-thiophen-3-yl-2,5,6,7-tetrahydro-cyclopenta[d]pyridazin-1-one] | 100 to 10000
COc1cc(OC)cc(-c2nn(-c3cc(NC(C)=O)ccc3C(F)(F)F)c(=O)c3c2CCC3)c1 [Example 159, N-{3-[4-(3,5-dimethoxy-phenyl)-1-oxo-1,5,6,7-tetrahydro-cyclopenta[d]pyridazin-2-yl]-4-trifluoromethyl-phenyl}-acetamide] | < 100
COc1cc(OC)cc(-c2nn(-c3cc(CN(C)C)ccc3C(F)(F)F)c(=O)c3c2CCC3)c1 [Example 160, 4-(3,5-dimethoxy-phenyl)-2-(5-dimethylaminomethyl-2-trifluoromethyl-phenyl)-2,5,6,7-tetrahydro-cyclopenta[d]pyridazin-1-one hydrochloride] | 100 to 10000
